Test results as given in patent US6465395B2, “Substituted methylene pyrazolinones and the herbicidal use thereof” (BASF Aktiengesellschaft, priority 2000, dated 2002).

Assays:
Format in all cases: in vivo
[1] = tested on: GOSHI, Cotton, Gossypium hirsutum, L.; test: Postemergence herbicidal evaluation; conditions: crop (cotton)
Protocol: (§1) The postemergence herbicidal activity of the compounds of the present invention is evaluated by the following tests. Seedling plants are grown in jiffy flats for about two weeks. The test compounds are dispersed in 80/20 (v/v) acetone/water mixtures containing 1.0% SUN-IT®II, a methylated seed oil, in sufficient quantities to provide the equivalent of about 0.006 kg/ha to 0.800 kg/ha of active compound when applied to the plants through a spray nozzle operating at 40 psi for a predetermined time. After spraying, the plants are placed on greenhouse benches and are cared for in accordance with conventional greenhouse procedures. Approximately two to three weeks after treatment, the seedling plants are examined and rated according to the rating system set forth below. Where more than one test is involved for a given compound, the data are averaged.

[2] = tested on: ABUTH, Velvetleaf, Abutilon theophrasti, Medic.; test: Postemergence herbicidal evaluation
Protocol: as §1

[3] = tested on: AMBEL, Ragweed, Ambrosia artemisifolia, L.; test: Postemergence herbicidal evaluation
Protocol: as §1

[4] = tested on: CHEAL, Lambsquarters, Chenopodium album, L.; test: Postemergence herbicidal evaluation
Protocol: as §1

[5] = tested on: ECHCG, Barnyardgrass, Echinochloa crus-galli, (L.) Beau; test: Postemergence herbicidal evaluation
Protocol: as §1

[6] = tested on: IPOSS, Morningglory spp., Ipomoea spp.; test: Postemergence herbicidal evaluation
Protocol: as §1

[7] = tested on: ORYSAT, Rice, Tebonnet, Oryza sativa, (L.) Tebonnet; test: Postemergence herbicidal evaluation; conditions: crop (rice)
Protocol: as §1

[8] = tested on: PANDI, Panicum, Fall, Panicum dichotomiflorum, Michx; test: Postemergence herbicidal evaluation
Protocol: as §1

[9] = tested on: SETVI, Foxtail, Green, Setaria viridis, (L.) Beau; test: Postemergence herbicidal evaluation
Protocol: as §1

[10] = tested on: ZEAMX, Corn, Field, Zea mays, L.; test: Postemergence herbicidal evaluation; conditions: crop (corn)
Protocol: as §1

[11] = tested on: ABUTH, Velvetleaf, Abutilon theophrasti, Medic.; test: Preemergence herbicidal evaluation
Text: (§2) The preemergence herbicidal activity of the test compounds of the present invention is exemplified by the following tests in which the seeds of a variety of monocotyledonous and dicotyledonous plants are separately mixed with potting soil and planted on top of approximately one inch of soil in separate pint cups. After planting, the cups are sprayed with the selected aqueous acetone solution containing test compound in sufficient quantity to provide the equivalent of about 0.0125 kg/ha to 0.800 kg/ha of test compound per cup. The treated cups are then placed on greenhouse benches, watered and cared for in accordance with conventional greenhouse procedures. Approximately two to four weeks after treatment, the tests are terminated and each cup is examined and rated according to the rating system provided in Example 12. When more than one test is performed for a given compound, the data are averaged.

[12] = tested on: AMBEL, Ragweed, Ambrosia artemisifolia, L.; test: Preemergence herbicidal evaluation
Text: as §2

[13] = tested on: CHEAL, Lambsquarters, Chenopodium album, L.; test: Preemergence herbicidal evaluation
Text: as §2

[14] = tested on: ECHCG, Barnyardgrass, Echinochloa crus-galli, (L.) Beau; test: Preemergence herbicidal evaluation
Text: as §2

[15] = tested on: GOSHI, Cotton, Gossypium hirsutum, L.; test: Preemergence herbicidal evaluation; conditions: crop (cotton)
Text: as §2

[16] = tested on: IPOSS, Morningglory spp., Ipomoea spp.; test: Preemergence herbicidal evaluation
Text: as §2

[17] = tested on: ORYSAT, Rice, Tebonnet, Oryza sativa, (L.) Tebonnet; test: Preemergence herbicidal evaluation; conditions: crop (rice)
Text: as §2

[18] = tested on: PANDI, Panicum, Fall, Panicum dichotomiflorum, Michx; test: Preemergence herbicidal evaluation
Text: as §2

[19] = tested on: SETVI, Foxtail, Green, Setaria viridis, (L.) Beau; test: Preemergence herbicidal evaluation
Text: as §2

[20] = tested on: ZEAMX, Corn, Field, Zea mays, L.; test: Preemergence herbicidal evaluation; conditions: crop (corn)
Text: as §2

CCCS/C(=C1\C=NN(CC)C1=O)c1ccc2c(c1C)/C(=N/OC)CCS2(=O)=O [Example 8a, 1-Ethyl-4-[(E)-(5-methyl-4-oxothiochroman-6-yl)(propylthio)methylene]-2-pyrazolin-5-one 4′-[(E)-O-methyloxime], S,S-dioxide]
Herbicide rating GOSHI ([1]; 0.0500 kg/ha): 0.0 | Herbicide rating GOSHI ([1]; 0.1000 kg/ha): 0.0 | Herbicide rating GOSHI ([1]; 0.2000 kg/ha): 0.0 | Herbicide rating GOSHI ([1]; 0.4000 kg/ha): 3.0 | Herbicide rating GOSHI ([1]; 0.8000 kg/ha): 6.0 | Herbicide rating ABUTH ([2]; 0.0500 kg/ha): 0.0 | Herbicide rating ABUTH ([2]; 0.1000 kg/ha): 1.0 | Herbicide rating ABUTH ([2]; 0.2000 kg/ha): 2.0 | Herbicide rating ABUTH ([2]; 0.4000 kg/ha): 8.0 | Herbicide rating ABUTH ([2]; 0.8000 kg/ha): 6.0 | Herbicide rating AMBEL ([3]; 0.0500 kg/ha): 2.0 | Herbicide rating AMBEL ([3]; 0.1000 kg/ha): 3.0 | Herbicide rating AMBEL ([3]; 0.2000 kg/ha): 6.0 | Herbicide rating AMBEL ([3]; 0.4000 kg/ha): 7.0 | Herbicide rating AMBEL ([3]; 0.8000 kg/ha): 8.0 | Herbicide rating CHEAL ([4]; 0.0500 kg/ha): 7.0 | Herbicide rating CHEAL ([4]; 0.1000 kg/ha): 9.0 | Herbicide rating CHEAL ([4]; 0.2000 kg/ha): 9.0 | Herbicide rating CHEAL ([4]; 0.4000 kg/ha): 9.0 | Herbicide rating CHEAL ([4]; 0.8000 kg/ha): 9.0 | Herbicide rating ECHCG ([5]; 0.0500 kg/ha): 8.0 | Herbicide rating ECHCG ([5]; 0.1000 kg/ha): 8.0 | Herbicide rating ECHCG ([5]; 0.2000 kg/ha): 8.0 | Herbicide rating ECHCG ([5]; 0.4000 kg/ha): 9.0 | Herbicide rating ECHCG ([5]; 0.8000 kg/ha): 9.0 | Herbicide rating IPOSS ([6]; 0.0500 kg/ha): 0.0 | Herbicide rating IPOSS ([6]; 0.1000 kg/ha): 0.0 | Herbicide rating IPOSS ([6]; 0.2000 kg/ha): 0.0 | Herbicide rating IPOSS ([6]; 0.4000 kg/ha): 2.0 | Herbicide rating IPOSS ([6]; 0.8000 kg/ha): 4.0 | Herbicide rating ORYSAT ([7]; 0.0500 kg/ha): 0.0 | Herbicide rating ORYSAT ([7]; 0.1000 kg/ha): 0.7 | Herbicide rating ORYSAT ([7]; 0.2000 kg/ha): 1.5 | Herbicide rating ORYSAT ([7]; 0.4000 kg/ha): 5.0 | Herbicide rating ORYSAT ([7]; 0.8000 kg/ha): 5.0 | Herbicide rating PANDI ([8]; 0.0500 kg/ha): 3.0 | Herbicide rating PANDI ([8]; 0.1000 kg/ha): 6.0 | Herbicide rating PANDI ([8]; 0.2000 kg/ha): 7.0 | Herbicide rating PANDI ([8]; 0.4000 kg/ha): 6.0 | Herbicide rating PANDI ([8]; 0.8000 kg/ha): 9.0 | Herbicide rating SETVI ([9]; 0.0500 kg/ha): 1.0 | Herbicide rating SETVI ([9]; 0.1000 kg/ha): 4.0 | Herbicide rating SETVI ([9]; 0.2000 kg/ha): 5.0 | Herbicide rating SETVI ([9]; 0.4000 kg/ha): 8.0 | Herbicide rating SETVI ([9]; 0.8000 kg/ha): 9.0 | Herbicide rating ZEAMX ([10]; 0.0500 kg/ha): 0.0 | Herbicide rating ZEAMX ([10]; 0.1000 kg/ha): 0.0 | Herbicide rating ZEAMX ([10]; 0.2000 kg/ha): 0.0 | Herbicide rating ZEAMX ([10]; 0.4000 kg/ha): 0.0 | Herbicide rating ZEAMX ([10]; 0.8000 kg/ha): 0.5 | Herbicide rating ABUTH ([11]; 0.4000 kg/ha): 2.0 | Herbicide rating ABUTH ([11]; 0.8000 kg/ha): 6.0 | Herbicide rating AMBEL ([12]; 0.4000 kg/ha): 3.0 | Herbicide rating AMBEL ([12]; 0.8000 kg/ha): 6.0 | Herbicide rating CHEAL ([13]; 0.4000 kg/ha): 9.0 | Herbicide rating CHEAL ([13]; 0.8000 kg/ha): 9.0 | Herbicide rating ECHCG ([14]; 0.4000 kg/ha): 0.0 | Herbicide rating ECHCG ([14]; 0.8000 kg/ha): 2.0 | Herbicide rating GOSHI ([15]; 0.4000 kg/ha): 0.0 | Herbicide rating GOSHI ([15]; 0.8000 kg/ha): 2.0 | Herbicide rating IPOSS ([16]; 0.4000 kg/ha): 0.0 | Herbicide rating IPOSS ([16]; 0.8000 kg/ha): 2.0 | Herbicide rating ORYSAT ([17]; 0.4000 kg/ha): 0.0 | Herbicide rating ORYSAT ([17]; 0.8000 kg/ha): 3.0 | Herbicide rating PANDI ([18]; 0.4000 kg/ha): 5.0 | Herbicide rating PANDI ([18]; 0.8000 kg/ha): 8.0 | Herbicide rating SETVI ([19]; 0.4000 kg/ha): 4.0 | Herbicide rating SETVI ([19]; 0.8000 kg/ha): 5.0 | Herbicide rating ZEAMX ([20]; 0.4000 kg/ha): 0.0 | Herbicide rating ZEAMX ([20]; 0.8000 kg/ha): 0.0
